The values that follow are results of earlier work, collected in patent US20240398797A1, “COMBINATION THERAPIES FOR METASTATIC CASTRATION-RESISTANT PROSTATE CANCER” (Janssen Pharmaceutica NV, priority 2021, published 2024).

For data set [1], the system named is non-castrate hormone-sensitive and bicalutamide-resistant human prostate cancer xenograft models.
In data set [2] the target is T1, T877A AR mutant (Homo sapiens, UniProt P10275, T878A).
T1 sequence (P10275 1-920 T878A): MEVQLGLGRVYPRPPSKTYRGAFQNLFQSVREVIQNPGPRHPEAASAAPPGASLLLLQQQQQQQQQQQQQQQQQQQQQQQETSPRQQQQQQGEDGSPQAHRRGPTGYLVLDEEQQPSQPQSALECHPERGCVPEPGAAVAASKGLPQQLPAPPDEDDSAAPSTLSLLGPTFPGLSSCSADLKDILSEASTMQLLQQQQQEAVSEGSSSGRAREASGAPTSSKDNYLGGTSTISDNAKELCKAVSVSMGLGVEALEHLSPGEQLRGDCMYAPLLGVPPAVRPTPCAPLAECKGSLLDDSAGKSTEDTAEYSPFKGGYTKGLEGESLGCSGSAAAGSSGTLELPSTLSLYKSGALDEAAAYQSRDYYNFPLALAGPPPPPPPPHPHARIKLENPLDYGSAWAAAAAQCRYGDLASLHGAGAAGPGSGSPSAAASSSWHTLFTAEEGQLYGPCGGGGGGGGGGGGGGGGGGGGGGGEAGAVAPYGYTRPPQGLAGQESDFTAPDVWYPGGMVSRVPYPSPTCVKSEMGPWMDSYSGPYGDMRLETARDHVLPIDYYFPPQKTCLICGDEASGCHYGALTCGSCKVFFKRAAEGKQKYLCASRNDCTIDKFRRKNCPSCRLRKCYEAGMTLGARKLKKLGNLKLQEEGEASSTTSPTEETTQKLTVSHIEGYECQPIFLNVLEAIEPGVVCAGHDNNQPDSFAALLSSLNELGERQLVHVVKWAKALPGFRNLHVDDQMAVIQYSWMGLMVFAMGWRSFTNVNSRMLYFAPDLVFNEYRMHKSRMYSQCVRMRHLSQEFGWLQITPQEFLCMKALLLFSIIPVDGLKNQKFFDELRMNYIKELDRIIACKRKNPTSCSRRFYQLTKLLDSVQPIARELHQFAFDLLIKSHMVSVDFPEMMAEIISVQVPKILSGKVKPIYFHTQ

As to `CNC(=O)c1ccc(N2C(=S)N(c3cnc(C#N)c(C(F)(F)F)c3)C(=O)C23CCC3)cc1F` [Apalutamide, 4-[7-(6-cyano-5-trifluoromethylpyridin-3-yl)-8-oxo-6-thioxo-5,7-diazaspiro [3.4]oct-5-yl]-2-fluoro-N-methylbenzamide], the tumor regression result in data set [1] is on record as “partial or complete tumor regression”.
As to `CC(C)(O)C(=O)Nc1ccc([N+](=O)[O-])c(C(F)(F)F)c1` [hydroxyflutamide], the “activity at AR mutant” value in data set [2] is given as “act as AR agonists”.
